{"source": "patent US20070270493A1", "about": "“Composition with Preventive or Improvement Effect on Stress-Induced Brain Function Impairment and Related Symptoms or Diseases” (priority 2004, published 2007)", "system": "mice subjected to restraint stress", "test": "Morris water maze learning test", "type": "in vivo, male ICR mice", "settings": "mice after 6 hour restraint stress; TGA40S-containing diet from 3 weeks before, about 25 mg TGA40S (10 mg arachidonic acid) per mouse daily; five trials a day for 5 days; FIG. 1", "from_the_text": "The experimental groups consisted of 56 two- to three-month-old male ICR mice, divided into a control diet group (27 mice) and a TGA40S-containing diet group (29 mice), with the control diet or TGA40S-containing diet shown in Table 1 being given to each group for 3 weeks. Each group was further divided into non-restrained groups (non-restrained control diet group (13), non-restrained arachidonic acid (ARA) diet group (15)) and restrained groups (restrained control diet group (14), restrained ARA diet group ([…])). The restraining was accomplished using a wire mesh restraining tube, once for a 6 hour period three weeks after the start of feeding. The control diet or TGA40S-containing diet shown in Table 1 continued to be fed to each group for the remaining experiment period. The TGA40S used for the TGA40S-containing diet was the product obtained in Example 1. Since the daily ingestion was approximately 5 g per mouse, the daily intake of TGA40S was 25 mg per mouse. Also, since the total fatty acids bonded to the arachidonic acid-containing oils or fats (triglycerides) prepared in Example 1 included 40 wt % arachidonic acid, the daily intake of arachidonic acid was 10 mg per mouse. […] The time required for the mouse to reach the escape platform (escape latency time) was recorded as the learning index."}
{"smiles": "CCCCC/C=C\\C/C=C\\C/C=C\\C/C=C\\CCCC(=O)O", "note": "[arachidonic acid]", "values": [{"measurement": "learning ability (escape latency time, time required to reach the escape platform)", "value": "exhibits an improving effect against decline in learning ability or cognitive ability as a result of stress"}]}
